Test results from US20120010075A1 (priority 2009, published 2012).
Like-named read-outs stand apart in the source and are kept apart here.

Experiments:
[1] = system: Leptosphaeria nodorum (LEPTNO); test: In vitro fungitoxicity of hydrazones with and without copper towards Leptosphaeria nodorum (Example 26); assay type: cell-based; settings: 72 h at 25° C.; for inhibition of growth at 0.05 µg/mL: Parastagonospora nodorum, 72 h, read-out: LEPTNO % Inhn. Minus Copper Observed
Phytophthora infestans = assay type: in vivo, Phytophthora infestans on tomato; settings: applied 24 h before inoculation, assessed 7 days after inoculation
[2] = compound 0.05 μg/mL, copper-minus medium
[3] = compound 0.05 μg/mL, copper-plus medium (CuCl2.2H2O)
[4] = hydrazone 50 ppm + 50 μM CuCl2.2H2O, tomato
[5] = copper-minus medium, test compound Concn. 0.05 μg/mL
[6] = copper-plus medium (CuCl2 10 μM), test compound Concn. 0.05 μg/mL
[7] = hydrazone 50 ppm with 50 μM CuCl2.2H2O, tomato late blight

SMILES	LEPTNO % Inhn. Minus Copper Observed [1, 2] [%]	LEPTNO % Inhn. Plus Copper Observed [1, 3] [%]	TLB % Control (Phytophthora infestans; [4]) [%]	melting point [°C]	inhibition of growth at 0.05 µg/mL [1, 5] [%]	LEPTNO % Inhn. Plus Copper Observed [1, 6] [%]	TLB % Control (Phytophthora infestans; [7]) [%]	inhibition of growth at 0.05 µg/mL [1, 2] [%]
Cc1ccc(C(=O)N/N=C/c2cc(Br)cc(Br)c2O)c(C)c1 [Example 32]	0.0	94.4	74.6	192 to 194				
C/C(=N\NC(=O)c1ccccc1Cl)c1cc(F)cc(F)c1O [Example 576]				205 to 209	0.7	97.9	90.0	
COc1ccc(/C(C)=N/NC(=O)c2ccccc2C)c(O)c1OC [Example 552]				150 to 152	0	94.2	71.0	
Cc1cccc(C(=O)N/N=C/c2cc(C(F)(F)F)cc(Cl)c2O)c1 [Example 321]				204 to 206	11.7	96.6	100.0	
C/C(=N\NC(=O)c1cccc(C)c1)c1cc(Br)cc(Br)c1O [Example 541]				236 to 238	0	97.5	93.0	
C/C(=N\NC(=O)c1cccc(Cl)c1)c1cc(F)cc(F)c1O [Example 577]				279 to 282	1.9	97.9	100.0	
COc1ccc(O)c(C(=O)N/N=C/c2cc(Cl)cc(Cl)c2O)c1 [Example 487]				250 to 252	11.2	93.9	100.0	
O=C(N/N=C/c1cc(C(F)(F)F)cc(C(F)(F)F)c1O)c1ccc([N+](=O)[O-])cc1 [Example 339]				244 to 247	1.5	95.4	100.0	
COc1cccc(C(=O)N/N=C/c2cc(Br)ccc2O)c1C [Example 105]		95.2	74.6	199 to 201				5.8
O=C(N/N=C/c1cc(C(F)(F)F)cc(C(F)(F)F)c1O)c1ccccc1C(F)(F)F [Example 341]				210 to 214	1.2	88.9	63.0	
Cc1cc(C)cc(C(=O)N/N=C/c2cc(Br)cc(Br)c2O)c1 [Example 110]		98.2	76.4	209 to 211				19.9
C/C(=N\NC(=O)c1ccccc1Cl)c1cccc(Cl)c1O [Example 496]				189 to 193	0.7	97.8	94.0	
COc1cc(O)c(/C(C)=N/NC(=O)c2cccc(C)c2)c(OC)c1 [Example 585]				207 to 209	6.3	86.3	62.0	
O=C(N/N=C/c1cc(Br)cc(F)c1O)c1ccccc1O [Example 409]				297 to 299	7.9	96.3	98.0	
Cc1ccc(C(=O)N/N=C/c2cc(Cl)ccc2O)c(O)c1 [Example 446]				282 to 286	23.5	95.4	57.0	
O=C(N/N=C/c1c(Cl)ccc(Cl)c1O)c1ccc(F)cc1 [Example 368]				264 to 267	0	96.9	98.0	
C/C(=N\NC(=O)c1ccccc1C)c1cc(Cl)ccc1O [Example 505]				192 to 193	7.1	97.3	46.0	

SMILES	LEPTNO % Inhn. Minus Copper Observed [1, 2] [%]	LEPTNO % Inhn. Plus Copper Observed [1, 3] [%]	TLB % Control (Phytophthora infestans; [4]) [%]	melting point [°C]	inhibition of growth at 0.05 µg/mL [1, 5] [%]	LEPTNO % Inhn. Plus Copper Observed [1, 6] [%]	TLB % Control (Phytophthora infestans; [7]) [%]	inhibition of growth at 0.05 µg/mL [1, 2] [%]
C/C(=N\NC(=O)c1ccccc1)c1cccc(Cl)c1O [Example 492]				202 to 203	0	98.1	93.0	
COc1ccc(/C(C)=N/NC(=O)c2ccccc2)c(O)c1OC [Example 551]				154 to 155	1.7	96.0	90.0	
C/C(=N\NC(=O)c1ccccc1O)c1ccc(Cl)cc1O [Example 463]				311 to 312	5.1	96.3	61.0	
C/C(=N\NC(=O)c1cccc(C)c1)c1cc(Br)ccc1O [Example 289]		97.6	45.0	227 to 233				0
Cc1ccc(C(=O)N/N=C/c2cccc(Cl)c2O)c(O)c1 [Example 433]				258 to 266	10.8	97.8	100.0	
C/C(=N\NC(=O)c1ccccc1Cl)c1cccc([N+](=O)[O-])c1O [Example 272]		98.1	37.0	196 to 205				2
COc1ccc(O)c(/C(C)=N/NC(=O)c2cccc(Cl)c2)c1 [Example 266]		95.4	28.0	190 to 201				4.5
O=C(N/N=C(/c1cc(Cl)cc(Cl)c1O)C1CC1)c1ccccc1 [Example 589]				218 to 219	8.7	97.9	61.0	
Cc1cc(C)cc(C(=O)N/N=C/c2cc(Cl)ccc2O)c1 [Example 134]		95.3	57.0	196 to 199				4.2
Cc1cccc(O)c1C(=O)N/N=C/c1cc(Cl)cc(Cl)c1O [Example 485]				217 to 219	8	96.7	95.0	
C/C(=N\NC(=O)c1ccc(Br)cc1)c1ccccc1O [Example 458]				218 to 221	3.7	96.6	46.0	
COc1ccc(C(=O)N/N=C(\C)c2ccc(Cl)cc2O)cc1 [Example 459]				262 to 263	7.3	96.9	20.0	
O=C(N/N=C/c1c(O)cccc1Cl)c1ccccc1O [Example 406]				277 to 280	6.7	96.1	98.0	
C/C(=N\NC(=O)c1ccccc1)c1cc(C(F)(F)F)ccc1O [Example 527]				226 to 229	7.6	97.6	78.0	
CCOc1ccc(C(=O)N/N=C/c2cc(Cl)cc(Cl)c2O)cc1 [Example 97]		98.3	76.3	279 to 281				18.2
O=C(N/N=C/c1cc(C(F)(F)F)cc(C(F)(F)F)c1O)c1cccc([N+](=O)[O-])c1 [Example 338]				256 to 258	9	98.1	96.0	
